Data set [1] in a line: Nitric oxide gas bubbled through carrier, change in weight. In kind it is physicochemical. The note with it: NO gas bubbled 40 hr, 25 °C. As to the method: This example illustrates one technique for preparing a composition in accordance with one embodiment of the invention. An accurate amount of a carrier (HNC 167-62) (see below) was introduced into a system. The carrier weight used in these experiments was approximately 250 g and the vessel size was 500 ml. The vessel was equipped with a mechanical stirrer, gas inlet, and gas outlet and was previously purged with argon for about an hour. The temperature of the carrier was kept at about 25-30° C. NO gas regulated at 5 psi (1 psi is about 6,900 Pa) and was then introduced at a controlled rate of about 1 bubble/s with continuous stirring. […] After 6 hours, the weight of the carrier had increased by 0.15%, by 12 hours by 0.25%, and by 24 hours by 0.56%. These increases in weight were believed to be significant considering the relative small molecular weight of NO versus the carrier. […] The carrier also can solidify upon cooling if the carrier is initially a solid at lower temperature.
Each carrier was taken in a 500 mL three necked flask equipped with a mechanical stirrer, gas inlet and a gas outlet. The system was purged with argon for one hour at room temperature (25° C.). Then nitric oxide gas was bubbled into the system. Then, nitric oxide gas was bubbled through carrier for stipulated amount of time. The changes in weight and color were noted. […]

For data set [2], the system named is humans. Briefly: Laser Doppler capillary circulation in five human subjects, Example 7. In kind it is in vivo. The note with it: positive control formulation containing 0.1% methyl nicotinate. The source says:
This example illustrates delivery of nitric oxide formulations to five human subjects, using procedures and formulations similar to those discussed in Example 5. Each person served as their own control for the testing. A Moor Instruments Laser Doppler was used to determine circulation. […] The formulations used produce positive, almost immediate results when applied to the skin which, in these studies, was manifested by vasodilatation of the cutaneous vascular system.
For each subject, the following creams were applied: a negative control formulation (containing no NO), 0.010 gram of a 10,000 ppm NO formulation, 0.020 gram of a 10,000 ppm NO formulation, and a positive control formulation containing 0.1% methyl nicotinate. The formulations were prepared using procedures similar to those discussed in Example 1.

For data set [3], the system named is humans. Briefly: Laser Doppler capillary blood flow, closed Hilltop chamber on forearm, Example 5. The data set is classed as in vivo, human. The note with it: applied to the skin at 1/10% in alcohol. The source says: The formulation used in these studies contained nitric oxide dispersed in a lipid matrix. […] Nitric oxide is a very rapid acting molecule, and these studies used a system that employed laser Doppler with a covered chamber. The formulation was placed into the chamber and then attached to the skin by an adhesive layer on the covering. This provided a stable measuring device as determined by multiple normal evaluations of the capillary blood flow without treatment of nitric oxide.
A known positive control, methyl nicotinate, was applied to the skin at a concentration of 1/10% in alcohol. […] The vascular dynamics are such that when the blood vessels dilate physical parameters follow Bernoulli's law. This states that as one increases the diameter of a tube containing a liquid to flow will increase but the pressure and the speed of the liquid will decrease. The laser Doppler device accurately measured these parameters.
The test product was labeled as 10,000 ppm NO (nitric oxide). The study participants had 100 mg of the test product applied in a closed Hilltop chamber on the forearm. […]
A Moor Instruments DRT4 Laser Doppler Blood Flow Monitor (Devon, England) was used in these studies. The laser Doppler technique measured blood flow in the microcapillaries of the skin that are close to the skin surface and the blood flow in underlying arterioles and venules that help to regulate skin temperature. […]

Consider `OCCCO` [1,3-Propanediol, 1,3-propanediol], for which, in data set [1], the “% Wt. gain” value is 0.09% and the “Wt Gain” value is given as 0.16 g.
Turning to `COC(=O)c1cccnc1` [methyl nicotinate], in the data set on humans [2], the vasodilatation result is “vasodilatation was observed”. Moreover, in the data set on humans [3], the “laser Doppler response of positive control” value is “rapid response typical of the vasodilator”.

Source of the values: US10034897B2, “Methods and compositions for muscular and neuromuscular diseases” (priority 2012, dated 2018).
